This note sets out measurements from patent publication US10077436B2, “Beta-glucosidase enzymes for increased biomass saccharification” (Edeniq, Inc., priority 2013, dated 2018).

Assay [1] deals with A-BG (Accellerase® BG from DuPont), commercial beta-glucosidase. Briefly: BG kinetics, cellobiose hydrolysis assay (HPLC) with glucose as competitive inhibitor, A-BG. Format: biochemical. The text has this: The kinetic properties of beta glucosidase are important for cellulosic hydrolysis, since in commercial situations a wide range of substrate concentrations and different product inhibition conditions will be encountered. In this example, a Michaelis-Menten kinetics model was used to describe BG kinetics.
BG activity assay using cellobiose is the other standard assay to measure BG or cellobiase activity, which utilizes hydrolysis of cellobiose by cellobiase into two molecules of glucose, the last step of enzymatic hydrolysis of cellulose. One cellobiase unit (commonly termed as CBU) is defined as the amount of enzyme that converts […] of cellobiose or produces 2 μmol of glucose per min. Briefly, to determine BG activity, 25 μL of diluted enzyme in 50 mM citrate buffer (pH 4.8) equilibrated to 50° C. was mixed with 25 μL cellobiose (or cellobiose/glucose mixture for the kinetic study) to start the reaction. The mixture was incubated at 50° C. for 10 min, and the reaction was terminated by incubating the mixture at 99° C. for 5 min. Different methods are available to measure the glucose produced in the assays. For the kinetic study, HPLC was used.
To determine kinetic properties using cellobiose substrate, duplicate assays with cellobiose concentrations ranging from 0.47 to 15 mM and glucose concentrations of 0, 0.9, 4.5, 6.75, and 8.1 (for A-BG) or 9 (for all the other three BGs) g/L were performed. As for pNPG substrate, the range of cellobiose substrate concentration was chosen to show detectable activity at the lowest substrate concentration and saturation stage at high substrate concentration. […] Moreover, theoretically there are two ways to measure BG activity by HPLC when cellobiose is used as the substrate: tracking consumption of cellobiose or tracking production of glucose. […] In Table 3, A % is defined as follows and is an indicator of measurement sensitivity, since the difference of substrate or product concentrations before and after reaction was used to determine BG activity. Δ%=(start conc. of cellobiose−end conc. of cellobiose)/start conc. of cellobiose×100% (3) Δ%=(end conc. of glucose−start conc. of glucose)/start conc. of glucose×100% (4)
A similar simultaneous nonlinear regression method based on the competitive inhibition equation expressed in Equation (1) was used to determine kinetic parameters of BG towards cellobiose.
The specific activity used here was determined by the initial velocity approach that is required by implementing Michaelis-Menten model (Copeland, 2000). The specific activity was determined by measuring consumption of cellobiose in the first 10 min of reaction and was expressed as μmol min^−1 mg^−1, where mg^−1 means per mg of total protein. The relative activity was determined based on the maximum activity obtained in the absence of initial glucose inhibition.
The above experimental data were fit in the competitive inhibition model as expressed in Equation (1) by simultaneous nonlinear regression.

Assay [2] has as its system S-BG (Novozymes SP188 from Sigma), commercial beta-glucosidase. In words: BG kinetics, pNPG hydrolysis assay with glucose as competitive inhibitor, S-BG. Type of assay: biochemical. As to conditions: pH 5.0, 50° C. The text has this:
The kinetic properties of beta glucosidase are important for cellulosic hydrolysis, since in commercial situations a wide range of substrate concentrations and different product inhibition conditions will be encountered. In this example, a Michaelis-Menten kinetics model was used to describe BG kinetics. To determine these kinetic properties, BG activity assays using standard substrates pNPG and cellobiose were employed. yEdQ745-BG (wild type) and yEdQ885-BG (improved), were compared with two commercial BGs, A-BG (Accellerase®) BG from Dupont) and S-BG (Novozymes SP188 from Sigma).
BG activity assay using pNPG is one of the two commonly used standard assays to measure BG activity, which utilizes hydrolysis of p-nitrophenyl-β-D-glucopyranoside (pNPG) by BG into a yellow colored product, p-nitrophenol (pNP), that has a strong absorbance at 405 nm. One pNPG unit is defined as the amount of enzyme that produces 1 μmol of pNP per min. Briefly, to determine BG activity, 25 μL of diluted enzyme in 200 mM sodium acetate buffer (pH 5.0) was mixed with 25 μL of the same buffer and 25 μL of RO water (or glucose solution for the kinetic study) and the mixture was preincubated at 50° C. for 5 min. The reaction was initiated by adding 25 μL of 10 mM pNPG in 200 mM sodium acetate buffer (pH 5.0) and the mixture was incubated at 50° C. for 10 min. The reaction was then terminated by adding 100 μL of 0.25 M sodium carbonate, and the amount of pNP produced was determined by measuring absorbance at 405 nm using a predetermined calibration curve.
The range of substrate concentration was chosen to show detectable activity at the lowest concentration and saturation stage at high substrate concentration. The upper limit of inhibitor (glucose) level was chosen to get as close as possible to the real conditions during saccharification (˜4% w/v glucose) and have a detectable residual activity.
To determine the kinetic properties, a competitive inhibition mechanism was hypothesized as proposed in the literature (Chauve et al, 2010; Krogh et al, 2010). The Michaelis-Menten equation with the competitive inhibition term can be expressed in Equation (1), where [S] is the substrate concentration (mM), [I] is the inhibitor concentration (mM), V is the rate of product formation (mM/min), Vmax is the maximal rate of product formation (mM/min), Km is the Michaelis-Menten constant and Ki is the inhibition constant. The turnover number, Kcat, can be calculated by Equation (2), where [Et] is the total amount of enzyme.
Conventionally, linearization methods can be used to determine the kinetic parameters based on Equation (1). Three common linear plots used are Lineweaver-Burke, Eadie-Hofstee and Hanes plots (Rogers and Gibon, 2009). However, these linearized versions of the Michaelis-Menten equation often produce substantial errors in parameter estimation. […] All of the activity data at different substrate levels and different inhibitor levels were fit simultaneously according to the full nonlinear equation for competitive enzyme inhibition as expressed in Equation (1). Thus, Vmax, Km and Ki can be determined simultaneously from this fitting process, and Km/Ki can then be calculated. Kcat can be obtained by Equation (2) and Kcat/Km can be calculated accordingly.
The above experimental data were fit in the competitive inhibition model as expressed in Equation (1) by simultaneous nonlinear regression. The order of maximum velocity (Vmax) is A-BG>yEdQ885-BG>S-BG≈yEdQ745-BG. […] Nevertheless, the in-house BGs have much higher dissociation constant for inhibitor (Ki), indicating higher tolerance to product inhibition. Consistent with Vmax, the order of turnover number (Kcat) is A-BG>yEdQ885-BG>S-BG≈yEdQ745-BG. With much lower Km and much higher Kcat, A-BG has a considerably higher catalytic efficiency (Kcat/Km) than the other enzymes. The catalytic efficiency of S-BG and yEdQ885-BG is quite close, which is higher than that of yEdQ745-BG. […]

For the compound `OC[C@H]1OC(O)[C@H](O)[C@@H](O)[C@@H]1O` (some centres unmarked) [glucose], the “loss of activity towards cellobiose under glucose inhibition” value in assay [1] (9 g/L (0.9% w/v) initial glucose, cellobiose substrate) was “completely lost its activity”. Moreover, the Ki (commonly a dissociation constant, usually derived from enzyme kinetics or from competition with a known ligand) in assay [1] (cellobiose substrate, competitive inhibition, pH 4.8, 50° C.) is 5.2 ± 0.63 mM; in assay [2] (pNPG substrate, competitive inhibition), 0.81 ± 0.11 mM. The Km/Ki in assay [1] (inhibitor influence, Km for cellobiose / Ki for glucose, pH 4.8, 50° C.) was found to be 1.26; in assay [2] (inhibitor influence, Km for pNPG / Ki for glucose) it was 0.52.
